Test results as given in patent publication US9040523B2, “Antifungal 5,6-dihydro-4H-pyrrolo[1,2-α][1,4]-benzodiazepines and 6H-pyrrolo[1,2-α][1,4]benzodiazepines substituted with benzene derivatives” (JANSSEN PHARMACEUTICA NV, priority 2010, dated 2015).
Where a name gives a salt, the structure may show the parent alone.

Assays:
Format in all cases: cell-based
[1] = test system: Sporothrix schenkii B62482; experiment: Antifungal activity in vitro (resazurin susceptibility screen), Inf. A; settings: 27 °C, 4 days, resa time 24 hours, highest in-test concentration 64 μM; for Inf. A pIC50: Sporothrix schenkii B62482; for IC50: Sporothrix, B62482, Sporothrix schenkii B62482, read-out: Inf. A pIC50 (converted)
Protocol: (§1) The standard susceptibility screen was performed in 96-well plates (U-bottom, Greiner Bio-One). […] These serial dilutions (10 n1) were then spotted onto test-plates that could be stored in the dark at 4° C. for a maximum period of 2 weeks. […] The different fungal species/isolates (Table 3a) were cryopreserved and 1/1000 diluted in medium just prior to use. A standard inoculum of 200 μl containing 10^3 colony-forming unit (cfu) was then added to each well. A positive control (100% growth=fungal culture without antifungal) and a negative control (0% growth ═RPMI-MOPS medium) were included on each plate. […] [table]

Microsporum canis B68128 = experiment: Antifungal activity in vitro (resazurin susceptibility screen), Inf. B; settings: 27 °C, 9 days, resa time 24 hours; for Inf. B pIC50: Microsporum canis B68128; for IC50: Microsporum canis, B68128, Microsporum canis B68128, read-out: Inf. B pIC50 (converted)
Protocol: (§2) The standard susceptibility screen was performed in 96-well plates (U-bottom, Greiner Bio-One). […] These serial dilutions (10 n1) were then spotted onto test-plates that could be stored in the dark at 4° C. for a maximum period of 2 weeks. […] A standard inoculum of 200 μl containing 10^3 colony-forming unit (cfu) was then added to each well. A positive control (100% growth=fungal culture without antifungal) and a negative control (0% growth ═RPMI-MOPS medium) were included on each plate.

[2] = test system: Trichophyton rubrum B68183; experiment: Antifungal activity in vitro (resazurin susceptibility screen), Inf. C; settings: Trichophyton rubrum B68183, 27 °C, 7 days, resa time 24 hours; for IC50: read-out: Inf. C pIC50 (converted)
Protocol: as §1

[3] = test system: Candida parapsilosis B66126; experiment: Antifungal activity in vitro (resazurin susceptibility screen), Inf. D; settings: Candida parapsilosis B66126, 37 °C, 24 hours, resa time 4 hours; for IC50: Lodderomyces parapsilosis, read-out: Inf. D pIC50 (converted)
Protocol: as §2

[4] = test system: Aspergillus fumigatus B42928; experiment: Antifungal activity in vitro (resazurin susceptibility screen), Inf. E; settings: Aspergillus fumigatus B42928, 27 °C, 48 hours, resa time 17 hours; for IC50: read-out: Inf. E pIC50 (converted)
Protocol: as §1

[5] = test system: Cryptococcus neoformans B66663; experiment: Antifungal activity in vitro (resazurin susceptibility screen), Inf. F; settings: 37 °C, 24 hours, resa time 4 hours; for Inf. F pIC50: Cryptococcus neoformans B66663; for IC50: Cryptococcus neoformans, B66663, Cryptococcus neoformans B66663, read-out: Inf. F pIC50 (converted)
Protocol: as §1

[6] = test system: Trichophyton mentagrophytes B70554; experiment: Antifungal activity in vitro (resazurin susceptibility screen), Inf. G; settings: 27 °C, 7 days, resa time 24 hours; for Inf. G pIC50: Trichophyton mentagrophytes B70554; for IC50: Trichophyton mentagrophytes, B70554, Trichophyton mentagrophytes B70554, read-out: Inf. G pIC50 (converted)
Protocol: as §2

SMILES	Inf. A pIC50 [1]	Inf. B pIC50 (Microsporum canis B68128)	Inf. C pIC50 [2]	Inf. D pIC50 [3]	Inf. E pIC50 [4]	Inf. F pIC50 [5]	Inf. G pIC50 [6]	IC50 [1]	IC50 (Microsporum canis B68128)	IC50 [2]	IC50 [3]	IC50 [4]	IC50 [5]	IC50 [6]
CC(O)c1ccc(C2NCc3c(ccc(Cl)c3Cl)-n3cccc32)cc1.Cl (stereo not drawn) [Compound 2, 4-(7,8-dichloro-5,6-dihydro-4H-pyrrolo[1,2-a][1,4]benzodiazepin-4-yl)-alpha-methyl-benzenemethanol .HCl]	<4.2	4.7	<4.2	<4.2	<4.2	<4.2	<4.2							
CC(O)c1ccc(C2NCc3cc(Cl)cc(Cl)c3-n3cccc32)cc1.Cl (stereo not drawn) [Compound 3, 4-(8,10-dichloro-5,6-dihydro-4H-pyrrolo[1,2-a][1,4]benzodiazepin-4-yl)-alpha-methyl-benzenemethanol .HCl]	<4.2	5.0	6	<4.2	<4.2	4.7	4.4							
CC(=O)c1cccc(C2NCc3c(Cl)cccc3-n3cccc32)c1 (stereo not shown) [Compound 4, 1-[3-(7-chloro-5,6-dihydro-4H-pyrrolo[1,2-a][1,4]benzodiazepin-4-yl)phenyl]-ethanone]								> 63.1 µM	10 µM	5.01 µM	> 63.1 µM	> 63.1 µM	> 63.1 µM	
Br.CC(=O)c1ccc(C2NCc3c(Cl)cccc3-n3cccc32)cc1 (stereo not shown) [Compound 6, 1-[4-(7-chloro-5,6-dihydro-4H-pyrrolo[1,2-a][1,4]benzodiazepin-4-yl)phenyl]-ethanone .HBr]	4.7	6.2	6.4	<4.2	4.5	<4.2								
CC(=O)c1cc(C2NCc3c(Cl)cccc3-n3cccc32)ccc1F.Cl (stereo not shown) [Compound 7, 1-[5-(7-chloro-5,6-dihydro-4H-pyrrolo[1,2-a][1,4]benzodiazepin-4-yl)-2-fluorophenyl]-ethanone .HCl]	<4.2	5.1	6.0	<4.2	<4.2	<4.2	5.2							
CC(=O)c1ccc(C2NCc3c(ccc(Cl)c3Cl)-n3cccc32)cc1.Cl (stereo not shown) [Compound 9, 1-[4-(7,8-dichloro-5,6-dihydro-4H-pyrrolo[1,2-a][1,4]benzodiazepin-4-yl)phenyl]-ethanone .HCl]	5.0	5.6	5.7	<4.2	<4.2	4.5	4.5							
CC(=O)c1cccc(C2NCc3c(Cl)cc(Cl)cc3-n3cccc32)c1.Cl (stereo not shown) [Compound 10, 1-[3-(7,9-dichloro-5,6-dihydro-4H-pyrrolo[1,2-a][1,4]benzodiazepin-4-yl)phenyl]-ethanone .HCl]	<4.2	5.3	5.7	<4.2	<4.2	<4.2	5.2							
CC(=O)c1ccc(C2NCc3c(Cl)cc(Cl)cc3-n3cccc32)cc1.Cl (stereo not shown) [Compound 12, 1-[4-(7,9-dichloro-5,6-dihydro-4H-pyrrolo[1,2-a][1,4]benzodiazepin-4-yl)phenyl]-ethanone .HCl]	<4.2	4.9	5.7	<4.2	<4.2	<4.2	5.1							
CS(=O)(=O)c1cccc(C2=NCc3c(Cl)cccc3-n3cccc32)c1 [Compound 27]	<4.2	5.2	5.1	<4.2	<4.2	4.2	5.1							
CS(=O)(=O)c1ccc(C2=NCc3c(Cl)cc(Cl)cc3-n3cccc32)cc1 [Compound 30, 7,9-dichloro-4-[4-(methylsulfonyl)phenyl]-6H-pyrrolo[1,2-a][1,4]benzodiazepine]								50.1 µM	3.98 µM	2 µM	> 63.1 µM	63.1 µM	15.8 µM	6.31 µM
OCCc1ccc(C2NCc3c(Cl)cc(Cl)cc3-n3cccc32)cc1 (stereo not shown) [Compound 34, 4-(7,9-dichloro-5,6-dihydro-4H-pyrrolo[1,2-a][1,4]benzodiazepin-4-yl)-benzeneethanol .HCl]								> 63.1 µM	2 µM	12.6 µM	> 63.1 µM	> 63.1 µM	31.6 µM	20 µM
Cl.OCCc1ccc(C2NCc3c(Cl)cccc3-n3cccc32)cc1 (stereo not shown) [Compound 35, 4-(7-chloro-5,6-dihydro-4H-pyrrolo[1,2-a][1,4]benzodiazepin-4-yl)-benzeneethanol .HCl]	<4.2	4.4	5.1	<4.2	<4.2	4.3	4.9							
Cl.OCCc1ccc(C2NCc3cc(Cl)cc(Cl)c3-n3cccc32)cc1 (stereo not shown) [Compound 36, 4-(8,10-dichloro-5,6-dihydro-4H-pyrrolo[1,2-a][1,4]benzodiazepin-4-yl)-benzeneethanol .HCl]	<4.2	4.3	4.5	<4.2	<4.2	4.6	4.7							
Cl.OCCc1ccc(C2NCc3c(ccc(Cl)c3Cl)-n3cccc32)cc1 (stereo not shown) [Compound 37, 4-(7,8-dichloro-5,6-dihydro-4H-pyrrolo[1,2-a][1,4]benzodiazepin-4-yl)-benzeneethanol .HCl]	4.8	<4.2	4.5	<4.2	4.4	5.0	4.4							
Cl.OCCc1ccc(C2NCc3c(Cl)ccc(Cl)c3-n3cccc32)cc1 (stereo not shown) [Compound 38, 4-(7,10-dichloro-5,6-dihydro-4H-pyrrolo[1,2-a][1,4]benzodiazepin-4-yl)-benzeneethanol .HCl]	<4.2	5.7	5.1	<4.2	<4.2	4.7	4.7							
